With `CCOc1ccc2c(C#N)c(-c3ccc(NC(=O)O[C@H](C)C(F)(F)F)cc3)n(C3CCC3)c2c1` [Compound 2878], the melting point – broadly, the temperature, or range, at which the solid turns liquid – lay in the range of 196 to 199 °C.
The value for `C[C@@H](OC(=O)Nc1ccc(-c2c(C#N)c3ccc(OCCF)cc3n2C2CCC2)cc1)C(F)(F)F` [Compound 2879] was 198 to 200 °C; that for `C[C@@H](OC(=O)Nc1ccc(-c2c(C#N)c3ccc(OC(F)F)cc3n2C2CCC2)cc1)C(F)(F)F` [Compound 2880] was 161 to 162 °C.
The value for `CCn1ccnc1COc1ccc2c(C#N)c(-c3ccc(NC(=O)OC(C)C)cc3)n(C3CCC3)c2c1` [Compound 2881] was 197 to 203 °C; that for `CC(C)NC(=O)Nc1ccc(-c2c(C#N)c3ccc(OC4COCOC4)cc3n2C2CCC2)cc1` [Compound 2882] was 210 to 212 °C; that for `C[C@@H](OC(=O)Nc1ccc(-c2c(C#N)c3ccc(OC4COCOC4)cc3n2C2CCC2)cc1)C(F)(F)F` [Compound 2885] was 189 to 190 °C.
The value for `Cc1cc(-c2c(C#N)c3ccc(OC4CCOCC4)cc3n2C2CCC2)ccc1NC(=O)OC(C)C` [Compound 2889] was 129 to 130 °C; that for `CCCS(=O)(=O)Nc1ccc(-c2c(C#N)c3ccc(N4CCOCC4)cc3n2CC2CC2)cc1` [Compound 2890] was 186 to 189 °C.
In turn, `CC(C)OC(=O)Nc1ccc(-c2c(C#N)c3ccc(N4CCOCC4)cc3n2CC2CC2)cc1` [Compound 2891] showed a melting point of 170 to 180 °C.
The value for `CC(C)OC(=O)Nc1ccc(-c2c(C#N)c3ccc(N4CCCCC4)cc3n2CC2CC2)cc1` [Compound 2892] was 145 to 148 °C.
In turn, `CC(C)OC(=O)Nc1ccc(-c2c(C#N)c3ccc(OC4COCOC4)cc3n2C2CCC2)cc1` [Compound 2894] registered a melting point of 208 to 210 °C.
In the case of `CS(=O)(=O)Nc1ccc(-c2c(C#N)c3ccc(C(=O)N4CCOCC4)cc3n2C2CCC2)cc1` [Compound 2897] it was 247 to 249 °C.
`CCS(=O)(=O)Nc1ccc(-c2c(C#N)c3ccc(C(=O)N4CCOCC4)cc3n2C2CCC2)cc1` [Compound 2898] had a melting point of 220 to 222 °C.
The value for `CC(C)S(=O)(=O)Nc1ccc(-c2c(C#N)c3ccc(C(=O)N4CCOCC4)cc3n2C2CCC2)cc1` [Compound 2899] was 169 to 171 °C; that for `N#Cc1c(-c2ccc(NS(=O)(=O)C3CCC3)cc2)n(C2CCC2)c2cc(C(=O)N3CCOCC3)ccc12` [Compound 2900] was 198 to 200 °C; that for `CC(C)CS(=O)(=O)Nc1ccc(-c2c(C#N)c3ccc(C(=O)N4CCOCC4)cc3n2C2CCC2)cc1` [Compound 2901] was 210 to 212 °C.
`CCCS(=O)(=O)Nc1ccc(-c2c(C#N)c3ccc(Oc4nccc(C)n4)cc3n2C2CCC2)cc1` [Compound 2902]: the melting point lay within 223 to 227 °C.
For `Cc1ccnc(Oc2ccc3c(C#N)c(-c4ccc(NS(=O)(=O)C5CC5)cc4)n(C4CCC4)c3c2)n1` [Compound 2903], the melting point was in the range of 172 to 174 °C.
The value for `COc1ccnc(Oc2ccc3c(C#N)c(-c4ccc(NS(=O)(=O)CC(C)C)cc4)n(C4CCC4)c3c2)n1` [Compound 2904] was 182 to 186 °C; that for `C[C@@H](OC(=O)Nc1ccc(-c2c(C#N)c3ccc(N4CCCCC4)cc3n2CC2CC2)cc1)C1CC1` [Compound 2907] was 127 to 132 °C.
In the case of `N#Cc1c(-c2ccc(NS(=O)(=O)C3CC3)cc2)n(CC2CC2)c2cc(N3CCCCC3)ccc12` [Compound 2908] it was 191 to 194 °C; in that of `Cc1nccnc1Oc1ccc2c(C#N)c(-c3ccc(NC(=O)O[C@H](C)C4CC4)cc3)n(C3CCC3)c2c1` [Compound 2909], 201 to 202 °C.
The compound `C[C@@H](OC(=O)Nc1ccc(-c2c(C#N)c3ccc(OC4CCOCC4)cc3n2C2CC2)cc1)C(F)(F)F` [Compound 2910] gave a melting point of 162 to 164 °C.
The value for `CS(=O)(=O)Nc1ccc(-c2c(C#N)c3ccc(OC4CCOCC4)cc3n2C2CC2)cc1` [Compound 2911] was 205 to 207 °C; that for `CCS(=O)(=O)Nc1ccc(-c2c(C#N)c3ccc(OC4CCOCC4)cc3n2C2CC2)cc1` [Compound 2912] was 212 to 214 °C.
Compound `Cc1ccnc(Oc2ccc3c(C#N)c(-c4ccc(NC(=O)O[C@H](C)C5CC5)cc4)n(C4CCC4)c3c2)n1` [Compound 2913] had a melting point of 172 to 174 °C.
The value for `N#Cc1c(-c2ccc(N3CCCS3(=O)=O)cc2)n(C2CCC2)c2cc(N3CCOCC3)ccc12` [Compound 2914] was 290 to 292 °C; that for `CS(=O)(=O)Nc1ccc(-c2c(C#N)c3ccc(N4CCOCC4)cc3n2C2CCC2)cc1` [Compound 2915] was 269 to 271 °C.
The value for `CC(C)CS(=O)(=O)Nc1ccc(-c2c(C#N)c3ccc(OC4COCOC4)cc3n2C2CCC2)cc1` [Compound 2917] was 175 to 177 °C; that for `N#Cc1c(-c2ccc(NS(=O)(=O)C3CCCC3)cc2)n(C2CCC2)c2cc(OC3COCOC3)ccc12` [Compound 2918] was 195 to 196 °C.
In the case of `N#Cc1c(-c2ccc(NS(=O)(=O)C3CCC3)cc2)n(C2CCC2)c2cc(OC3COCOC3)ccc12` [Compound 2919] it was 200 to 204 °C; in that of `CC(C)S(=O)(=O)Nc1ccc(-c2c(C#N)c3ccc(OC4COCOC4)cc3n2C2CCC2)cc1` [Compound 2920], 196 to 198 °C; in that of `N#Cc1c(-c2ccc(N3CCCS3(=O)=O)cc2)n(CC2CC2)c2cc(N3CCOCC3)ccc12` [Compound 2921], 241 to 245 °C.
For the compound `CCc1cnc(Oc2ccc3c(C#N)c(-c4ccc(NC(=O)O[C@H](C)C5CC5)cc4)n(C4CCC4)c3c2)nc1` [Compound 2923], the melting point was in the range of 158 to 160 °C.
`C[C@@H](OC(=O)Nc1ccc(-c2c(C#N)c3ccc(Oc4nccc(C(F)(F)F)n4)cc3n2C2CCC2)cc1)C1CC1` [Compound 2924] registered a melting point of 119 to 121 °C.
The value for `CCn1c(-c2ccc(N3CCCS3(=O)=O)cc2)c(C#N)c2ccc(N3CCOCC3)cc21` [Compound 2926] was 247 to 248 °C; that for `N#Cc1c(-c2ccc(N3CCCS3(=O)=O)cc2)n(C2CC2)c2cc(N3CCOCC3)ccc12` [Compound 2927] was 260 to 265 °C; that for `N#Cc1c(-c2ccc(NS(=O)(=O)C3CC3)cc2)n(C2CCC2)c2cc(OC3COCOC3)ccc12` [Compound 2928] was 216 to 217 °C.
In the case of `CCn1c(-c2ccc(NC(=O)O[C@H](C)C(F)(F)F)cc2)c(C#N)c2ccc(Oc3ncccn3)cc21` [Compound 2929] it was 221 to 223 °C; in that of `CCCS(=O)(=O)Nc1ccc(-c2c(C#N)c3ccc(Oc4nccnc4Cl)cc3n2C2CCC2)cc1` [Compound 2930], 227 to 229 °C; in that of `CCCS(=O)(=O)Nc1ccc(-c2c(C#N)c3ccc(Oc4nccnc4C)cc3n2C2CCC2)cc1` [Compound 2931], 227 to 230 °C.
In the case of `CCCS(=O)(=O)Nc1ccc(-c2c(C#N)c3ccc(-c4c(C)noc4C)cc3n2C2CCC2)cc1` [Compound 2932] it was 224 to 225 °C.
Regarding `C[C@@H](OC(=O)Nc1ccc(-c2c(C#N)c3ccc(N4CCOCC4)cc3n2CC2CC2)cc1)C1CC1` [Compound 2933], the melting point was in the range of 167 to 173 °C.
The value for `CC(C)OC(=O)Nc1ccc(-c2c(C#N)c3ccc(N4CCOCC4)cc3n2C(C)C)cc1` [Compound 2934] was 192 to 195 °C; that for `CCCS(=O)(=O)Nc1ccc(-c2c(C#N)c3ccc(Oc4ncccc4C(F)(F)F)cc3n2C2CC2)cc1` [Compound 2935] was 216 to 217 °C; that for `CCCS(=O)(=O)Nc1ccc(-c2c(C#N)c3ccc(Oc4cccnc4Cl)cc3n2C2CC2)cc1` [Compound 2936] was 209 to 210 °C.
With `CCCS(=O)(=O)Nc1ccc(-c2c(C#N)c3ccc(Oc4nccnc4Cl)cc3n2C2CC2)cc1` [Compound 2937], the melting point was in the range of 183 to 184 °C.
`CCCS(=O)(=O)Nc1ccc(-c2c(C#N)c3ccc(Oc4nccnc4C)cc3n2C2CC2)cc1` [Compound 2938]: the melting point fell in the range of 191 to 193 °C.
In turn, `CCCS(=O)(=O)Nc1ccc(-c2c(C#N)c3ccc(Oc4nccc(C)n4)cc3n2C2CC2)cc1` [Compound 2939] came in with a melting point of 239 to 241 °C.
Compound `CCn1c(-c2ccc(N3CCCS3(=O)=O)cc2)c(C#N)c2ccc(OC3CCOCC3)cc21` [Compound 2940] registered a melting point of 222 to 227 °C.
The value for `N#Cc1c(-c2ccc(N3CCCS3(=O)=O)cc2)n(C2CC2)c2cc(OC3CCOCC3)ccc12` [Compound 2941] was 219 to 224 °C; that for `CC(C)n1c(-c2ccc(NC(=O)O[C@H](C)C3CC3)cc2)c(C#N)c2ccc(N3CCOCC3)cc21` [Compound 2942] was 191 to 193 °C; that for `CCCS(=O)(=O)Nc1ccc(-c2c(C#N)c3ccc(Oc4ncccc4Cl)cc3n2C2CC2)cc1` [Compound 2943] was 215 to 217 °C.
Consider `CCCS(=O)(=O)Nc1ccc(-c2c(C#N)c3ccc(Oc4cccnc4Cl)cc3n2C2CCC2)cc1` [Compound 2945], for which the melting point fell in the range of 173 to 175 °C.
In the case of `CC(C)NS(=O)(=O)Nc1ccc(-c2c(C#N)c3ccc(Oc4nccnc4Cl)cc3n2C2CCC2)cc1` [Compound 2946] it was 144 to 146 °C.
In the case of `CC(C)NS(=O)(=O)Nc1ccc(-c2c(C#N)c3ccc(Oc4nccnc4Cl)cc3n2C2CC2)cc1` [Compound 2947] it was 130 °C (dec.); in that of `N#Cc1c(-c2ccc(NS(=O)(=O)NCC3CC3)cc2)n(C2CCC2)c2cc(Oc3nccnc3Cl)ccc12` [Compound 2948], 206 to 208 °C.
Compound `N#Cc1c(-c2ccc(NS(=O)(=O)NCC3CC3)cc2)n(C2CC2)c2cc(Oc3nccnc3Cl)ccc12` [Compound 2949] yielded a melting point of 181 to 183 °C.
The value for `CC(C)Nc1ccc(-c2c(C#N)c3ccc(Oc4ncccc4Cl)cc3n2C2CC2)cc1` [Compound 2951] was 196 to 197 °C.
In the case of `CC(C)n1c(-c2ccc(NC(=O)O[C@H](C)C(F)(F)F)cc2)c(C#N)c2ccc(N3CCOCC3)cc21` [Compound 2952] it was 148 to 150 °C.

(Values after patent publication US7772271B2 (priority 2004, dated 2010).)
